# In patent US10287301B2 (Achillion Pharmaceuticals, Inc., priority 2015, dated 2019):
# Target: Human Factor D (Homo sapiens (Human), UniProt P00746)
# Test: Human Factor D Assay
# Format: biochemical
# Settings: not given
# Outline: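 Thioesterase activity monitored with Z-L-Lys-SBzl plus Ellman's reagent (DTNB), each 100 μM final, after 5 min room-temperature compound preincubation of 80 nM human serum Factor D in pH 7.5 Tris (50 mM)/1M NaCl.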
# Human Factor D, sequence (P00746 26-253): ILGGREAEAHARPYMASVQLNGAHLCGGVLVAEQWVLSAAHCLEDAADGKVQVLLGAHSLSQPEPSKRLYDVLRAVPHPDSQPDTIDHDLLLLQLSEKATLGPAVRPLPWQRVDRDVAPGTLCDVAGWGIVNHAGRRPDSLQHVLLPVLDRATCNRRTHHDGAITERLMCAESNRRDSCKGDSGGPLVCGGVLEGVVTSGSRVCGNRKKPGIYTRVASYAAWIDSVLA
row,Structure (SMILES),IC50
1,"NC(=O)c1nn(CC(=O)N2C[C@H](F)C[C@H]2C(=O)Nc2ncc(Br)cn2)c2ccc(-c3ccnnc3)cc12 [Compound 109, 1-(2-((2S,4R)-2-(5-bromopyrimidin-2-ylcarbamoyl)-4-fluoropyrrolidin-1-yl)-2-oxoethyl)-5-(pyridazin-4-yl)-1H-indazole-3-carboxamide]",1 to 10 µM

# Same assay, conditions: Human Factor D 80 nM, substrate Z-L-Lys-SBzl; read-out: IC50
row,Structure (SMILES),IC50
1,"CC(=O)c1cn(CC(=O)N2C[C@H](F)C[C@H]2C(=O)Nc2ccc(F)c(-c3nnc4n3CCCCC4)c2)c2ccc(-c3ccnnc3)cc12 [Compound 92, (2S,4R)-1-(2-(3-acetyl-5-(pyridazin-4-yl)-1H-indol-1-yl)acetyl)-4-fluoro-N-(4-fluoro-3-(6,7,8,9-tetrahydro-5H-[1,2,4]triazolo[4,3-a]azepin-3-yl)phenyl) pyrrolidine-2-carboxamide]",< 1 µM
2,"NC(=O)c1nn(CC(=O)N2C[C@H](F)C[C@H]2C(=O)Nc2cccc(Cl)c2C(F)(F)F)c2ccc(-c3ccnnc3)cc12 [Compound 93, 1-(2-((2S,4R)-2-(3-chloro-2-(trifluoromethyl)phenylcarbamoyl)-4-fluoropyrrolidin-1-yl)-2-oxoethyl)-5-(pyridazin-4-yl)-1H-indazole-3-carboxamide]",> 10 µM
3,"NC(=O)c1nn(CC(=O)N2C[C@H](F)C[C@H]2C(=O)Nc2c[nH]nc2-c2ccc(Cl)cc2Cl)c2ccc(-c3ccnnc3)cc12 [Compound 94, 1-(2-((2S,4R)-2-(3-(2,4-dichlorophenyl)-1H-pyrazol-4-ylcarbamoyl)-4-fluoropyrrolidin-1-yl)-2-oxoethyl)-5-(pyridazin-4-yl)-1H-indazole-3-carboxamide]",> 10 µM
4,"CC(=O)c1cn(CC(=O)N2C[C@H](F)C[C@H]2C(=O)Nc2cccc(Cl)c2-n2cncn2)c2ccc(-c3ccnnc3)cc12 [Compound 95, (2S,4R)-1-(2-(3-acetyl-5-(pyridazin-4-yl)-1H-indol-1-yl)acetyl)-N-(3-chloro-2-(1H-1,2,4-triazol-1-yl)phenyl)-4-fluoropyrrolidine-2-carboxamide]",> 10 µM
5,"NC(=O)c1nn(CC(=O)N2C[C@H](F)C[C@H]2C(=O)Nc2cccc(Cl)c2-n2cncn2)c2ccc(-c3ccnnc3)cc12 [Compound 96, 1-(2-((2S,4R)-2-(3-chloro-2-(1H-1,2,4-triazol-1-yl)phenylcarbamoyl)-4-fluoropyrrolidin-1-yl)-2-oxoethyl)-5-(pyridazin-4-yl)-1H-indazole-3-carboxamide]",> 10 µM
6,"CC(=O)c1cn(CC(=O)N2C[C@H](F)C[C@H]2C(=O)Nc2cc(C)nc3nc(C(F)(F)F)nn23)c2ccc(-c3ccnnc3)cc12 [Compound 97, (2S,4R)-1-(2-(3-acetyl-5-(pyridazin-4-yl)-1H-indol-1-yl)acetyl)-4-fluoro-N-(5-methyl-2-(trifluoromethyl)-[1,2,4]triazolo[1,5-a]pyrimidin-7-yl)pyrrolidine-2-carboxamide]",> 10 µM
7,"Cn1cnnc1-c1ccccc1NC(=O)[C@@H]1C[C@@H](F)CN1C(=O)Cn1nc(C(N)=O)c2cc(-c3ccnnc3)ccc21 [Compound 98, 1-(2-((2S,4R)-4-fluoro-2-(2-(4-methyl-4H-1,2,4-triazol-3-yl)phenylcarbamoyl)pyrrolidin-1-yl)-2-oxoethyl)-5-(pyridazin-4-yl)-1H-indazole-3-carboxamide]",> 10 µM
8,"CC(=O)c1cn(CC(=O)N2C[C@H](F)C[C@H]2C(=O)Nc2nc(-c3ccccc3Cl)ns2)c2ccc(-c3ccnnc3)cc12 [Compound 99, (2S,4R)-1-(2-(3-acetyl-5-(pyridazin-4-yl)-1H-indol-1-yl)acetyl)-N-(3-(2-chlorophenyl)-1,2,4-thiadiazol-5-yl)-4-fluoropyrrolidine-2-carboxamide]",< 1 µM
9,"CC(=O)c1cn(CC(=O)N2C[C@H](F)C[C@H]2C(=O)Nc2cccc(Br)n2)c2ccc(-c3ccccc3Cl)cc12 [Compound 100, (2S,4R)-1-(2-(3-acetyl-5-(2-chlorophenyl)-1H-indol-1-yl)acetyl)-N-(6-bromopyridin-2-yl)-4-fluoropyrrolidine-2-carboxamide]",< 1 µM
10,"Cc1ncc(-c2ccc3c(c2)c(C(N)=O)nn3CC(=O)N2C[C@H](F)C[C@H]2C(=O)Nc2cccc(Br)n2)cn1 [Compound 101, 1-(2-((2S,4R)-2-(6-bromopyridin-2-ylcarbamoyl)-4-fluoropyrrolidin-1-yl)-2-oxoethyl)-5-(2-methylpyrimidin-5-yl)-1H-indazole-3-carboxamide]",< 1 µM
11,"CC(=O)c1cn(CC(=O)N2C[C@H](F)C[C@H]2C(=O)Nc2cccc(-c3ccccc3Cl)c2F)c2ccc(-c3cnc(C)nc3)cc12 [Compound 102, (2S,4R)-1-(2-(3-acetyl-5-(2-methylpyrimidin-5-yl)-1H-indol-1-yl)acetyl)-N-(2′-chloro-2-fluorobiphenyl-3-yl)-4-fluoropyrrolidine-2-carboxamide]",< 1 µM
12,Cc1ncc(-c2ccc3c(c2)c(C(N)=O)nn3CC(=O)N2C[C@H](F)C[C@H]2C(=O)Nc2cccc(-c3ccccc3Cl)c2F)cn1 [Compound 103],< 1 µM
13,"NC(=O)c1nn(CC(=O)N2C[C@H](F)C[C@H]2C(=O)Nc2cccc3c2CN(c2ccccn2)C3)c2ccc(-c3ccnnc3)cc12 [Compound 104, 1-(2-((2S,4R)-4-fluoro-2-(2-(pyridin-2-yl)isoindolin-4-ylcarbamoyl)pyrrolidin-1-yl)-2-oxoethyl)-5-(pyridazin-4-yl)-1H-indazole-3-carboxamide]",> 10 µM
14,"CC(=O)c1cn(CC(=O)N2C[C@H](F)C[C@H]2C(=O)Nc2cccc3c2CN(c2ccccn2)C3)c2ccc(-c3ccnnc3)cc12 [Compound 105, (2S,4R)-1-(2-(3-acetyl-5-(pyridazin-4-yl)-1H-indol-1-yl)acetyl)-4-fluoro-N-(2-(pyridin-2-yl)isoindolin-4-yl)pyrrolidine-2-carboxamide]",> 10 µM
15,"CC(=O)c1cn(CC(=O)N2C[C@H](F)C[C@H]2C(=O)NC2CCCc3nc(-c4ccc(F)cc4)sc32)c2ccc(-c3ccnnc3)cc12 (stereo partly drawn) [Compound 106, (2S,4R)-1-(2-(3-acetyl-5-(pyridazin-4-yl)-1H-indol-1-yl)acetyl)-4-fluoro-N-(2-(4-fluorophenyl)-4,5,6,7-tetrahydrobenzo[d]thiazol-7-yl)pyrrolidine-2-carboxamide]",> 10 µM
16,"NC(=O)c1nn(CC(=O)N2C[C@H](F)C[C@H]2C(=O)NC2CCCc3nc(-c4ccc(F)cc4)sc32)c2ccc(-c3ccnnc3)cc12 (stereo partly drawn) [Compound 107, 1-(2-((2S,4R)-4-fluoro-2-(2-(4-fluorophenyl)-4,5,6,7-tetrahydrobenzo[d]thiazol-7-ylcarbamoyl)pyrrolidin-1-yl)-2-oxoethyl)-5-(pyridazin-4-yl)-1H-indazole-3-carboxamide]",> 10 µM
17,"CC(=O)c1cn(CC(=O)N2C[C@H](F)C[C@H]2C(=O)Nc2ccc3ccccc3c2)c2ccc(-c3ccnnc3)cc12 [Compound 110, (2S,4R)-1-(2-(3-acetyl-5-(pyridazin-4-yl)-1H-indol-1-yl)acetyl)-4-fluoro-N-(naphthalen-2-yl)pyrrolidine-2-carboxamide]",> 10 µM
18,"NC(=O)c1nn(CC(=O)N2C[C@H](F)C[C@H]2C(=O)Nc2noc3cc(C(F)(F)F)ccc23)c2ccc(-c3ccnnc3)cc12 [Compound 112, 1-(2-((2S,4R)-4-fluoro-2-(6-(trifluoromethyl)benzo[d]isoxazol-3-ylcarbamoyl)pyrrolidin-1-yl)-2-oxoethyl)-5-(pyridazin-4-yl)-1H-indazole-3-carboxamide]",> 10 µM
19,"Cc1cc(NC(=O)[C@@H]2C[C@@H](F)CN2C(=O)Cn2nc(C(N)=O)c3cc(-c4ccnnc4)ccc32)n2nc(C(F)(F)F)nc2n1 [Compound 113, 1-(2-((2S,4R)-4-fluoro-2-(5-methyl-2-(trifluoromethyl)-[1,2,4]triazolo[1,5-a]pyrimidin-7-ylcarbamoyl)pyrrolidin-1-yl)-2-oxoethyl)-5-(pyridazin-4-yl)-1H-indazole-3-carboxamide]",> 10 µM
20,"NC(=O)c1nn(CC(=O)N2C[C@H](F)C[C@H]2C(=O)Nc2nnc(-c3ccccc3Cl)s2)c2ccc(-c3ccnnc3)cc12 [Compound 115, 1-(2-((2S,4R)-2-(5-(2-chlorophenyl)-1,3,4-thiadiazol-2-ylcarbamoyl)-4-fluoropyrrolidin-1-yl)-2-oxoethyl)-5-(pyridazin-4-yl)-1H-indazole-3-carboxamide]",> 10 µM
21,"CC(=O)c1cn(CC(=O)N2C[C@H](F)C[C@H]2C(=O)Nc2nnc(-c3ccc(Cl)c(Cl)c3)s2)c2ccc(-c3ccnnc3)cc12 [Compound 117, (2S,4R)-1-(2-(3-acetyl-5-(pyridazin-4-yl)-1H-indol-1-yl)acetyl)-N-(5-(3,4-dichlorophenyl)-1,3,4-thiadiazol-2-yl)-4-fluoropyrrolidine-2-carboxamide]",> 10 µM
22,"CC(=O)Nc1ncc(-c2ccc3c(c2)c(C(C)=O)cn3CC(=O)N2C[C@H](F)C[C@H]2C(=O)Nc2cccc(Br)n2)cn1 [Compound 118, (2S,4R)-1-(2-(5-(2-acetamidopyrimidin-5-yl)-3-acetyl-1H-indol-1-yl)acetyl)-N-(6-bromopyridin-2-yl)-4-fluoropyrrolidine-2-carboxamide]",< 1 µM
23,"CC(=O)c1cn(CC(=O)N2C[C@H](F)C[C@H]2C(=O)Nc2cccc(Br)n2)c2ccc(-c3cccc(Cl)c3)cc12 [Compound 119, (2S,4R)-1-(2-(3-acetyl-5-(3-chlorophenyl)-1H-indol-1-yl)acetyl)-N-(6-bromopyridin-2-yl)-4-fluoropyrrolidine-2-carboxamide]",< 1 µM
24,"CC(=O)c1cn(CC(=O)N2C[C@H](F)C[C@H]2C(=O)Nc2cccc(Br)n2)c2ccc(-c3ccc(C)nc3)cc12 [Compound 120, (2S,4R)-1-(2-(3-acetyl-5-(6-methylpyridin-3-yl)-1H-indol-1-yl)acetyl)-N-(6-bromopyridin-2-yl)-4-fluoropyrrolidine-2-carboxamide]",< 1 µM
25,"CC(=O)c1cn(CC(=O)N2C[C@H](F)C[C@H]2C(=O)Nc2cccc(-c3ccccc3Cl)c2F)c2ccc(-c3cnnc(C)c3)cc12 [Compound 121, (2S,4R)-1-(2-(3-acetyl-5-(6-methylpyridazin-4-yl)-1H-indol-1-yl)acetyl)-N-(2′-chloro-2-fluorobiphenyl-3-yl)-4-fluoropyrrolidine-2-carboxamide]",< 1 µM
